A value given as a limit tells only on which side of the number the result lay.

Experimental findings from patent publication US10150728B2, “Alkylene derivatives” (Shionogi & Co., Ltd., priority 2013, dated 2018) are described below.

For assay [1], the target named is recombinant human ACC1 (Homo sapiens (Human), UniProt Q13085). In words: Measurement of inhibitory activity on human ACC1 (MALDI-TOF MS, acetyl CoA to malonyl CoA conversion). Type of assay: biochemical. From the text: Preparation 2: Preparation of Recombinant Human ACC1
After a cDNA encoding human ACC1 (1 amino acid residue to 2346 amino acid residues from the N-terminus) was cloned from human liver cDNA library (BioChain), human ACC1 gene containing myc-tag and His-tag sequence at 3′ terminus was inserted into pIEXBAC3 (Novagen). Recombinant baculovirus was generated using FlashBACGOLD system (Oxford Expression Technologies) according to the manufacturer's protocol. To express human ACC1, Sf-9 cells were infected with recombinant baculovirus. After infected cells were disrupted, the filtrated lysate was subjected to Ni-affinity chromatography and anion-exchange chromatography. The fractions containing human ACC1 protein were pooled as recombinant human ACC1 solution.
The Measurement of Inhibitory Activity on Human ACC1 and the ACC2
Recombinant human ACC1 and recombinant human ACC2, which were prepared by the method mentioned above, were preincubated with assay buffer solution (50 mM HEPES-KOH (pH 7.4), 10 mM magnesium chloride, 6-10 mM potassium citrate, 4 mM reduced form of glutathione, 1.5 mg/ml bovine serum albumin) for one hour. Then, 0.2 μL of each this invention compound solution (in DMSO) were dispensed to 384-well microplate, 5 μL of the preincubated enzyme solution and 5 μL of substrate solution (50 mM HEPES-KOH (pH 7.4), 1 mM ATP, 0.8 mM acetyl CoA and 25-50 mM potassium bicarbonate) were added to microplate. After centrifugation and shaking, the reaction mixtures were incubated in a humidified box at room temperature for 1 to 3 hours. After the incubation, the enzyme reactions were stopped by the addition of EDTA. Then, after the samples were cocrystallized with CHCA (α-cyano-4-hydroxy cinnamic acid) matrices on MALDI target plate, by using the matrix assist laser […] time-of-flight mass spectrometer (MALDI-TOF MS), samples were measured in reflector negative mode. Deprotonated ions of acetyl CoA (AcCoA) of substrate and malonyl CoA (MalCoA) of the reaction product were detected, then, the conversion rates of acetyl CoA to malonyl CoA was calculated by the intensity of [MalCoA-H]−/(Intensity of [MalCoA-H]−+Intensity of [AcCoA-H]−) using each signal strength. […] In addition, potassium citrate concentrations in assay buffer solution, potassium hydrogen carbonate concentrations in substrate solution and incubation time were adjusted by each lot of enzyme.

Assay [2] has as its target recombinant human ACC2 (Homo sapiens (Human), UniProt O00763). Nature of the assay: Measurement of inhibitory activity on human ACC2 (MALDI-TOF MS, acetyl CoA to malonyl CoA conversion). Type of assay: biochemical. In outline:
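His-tagged human ACC2 (residues 27–2458) from baculovirus-infected Sf-9 cells was preincubated 1 h in pH 7.4 HEPES-KOH buffer with MgCl2, 6-10 mM potassium citrate, glutathione and BSA. Substrate solution held 1 mM ATP, 0.8 mM acetyl CoA and 25-50 mM bicarbonate. After 1–3 h at room temperature, malonyl CoA/(malonyl+acetyl CoA) was read by negative-mode MALDI-TOF MS; citrate, bicarbonate and time varied by enzyme lot.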

Sequence of recombinant human ACC2 (O00763 27-2458): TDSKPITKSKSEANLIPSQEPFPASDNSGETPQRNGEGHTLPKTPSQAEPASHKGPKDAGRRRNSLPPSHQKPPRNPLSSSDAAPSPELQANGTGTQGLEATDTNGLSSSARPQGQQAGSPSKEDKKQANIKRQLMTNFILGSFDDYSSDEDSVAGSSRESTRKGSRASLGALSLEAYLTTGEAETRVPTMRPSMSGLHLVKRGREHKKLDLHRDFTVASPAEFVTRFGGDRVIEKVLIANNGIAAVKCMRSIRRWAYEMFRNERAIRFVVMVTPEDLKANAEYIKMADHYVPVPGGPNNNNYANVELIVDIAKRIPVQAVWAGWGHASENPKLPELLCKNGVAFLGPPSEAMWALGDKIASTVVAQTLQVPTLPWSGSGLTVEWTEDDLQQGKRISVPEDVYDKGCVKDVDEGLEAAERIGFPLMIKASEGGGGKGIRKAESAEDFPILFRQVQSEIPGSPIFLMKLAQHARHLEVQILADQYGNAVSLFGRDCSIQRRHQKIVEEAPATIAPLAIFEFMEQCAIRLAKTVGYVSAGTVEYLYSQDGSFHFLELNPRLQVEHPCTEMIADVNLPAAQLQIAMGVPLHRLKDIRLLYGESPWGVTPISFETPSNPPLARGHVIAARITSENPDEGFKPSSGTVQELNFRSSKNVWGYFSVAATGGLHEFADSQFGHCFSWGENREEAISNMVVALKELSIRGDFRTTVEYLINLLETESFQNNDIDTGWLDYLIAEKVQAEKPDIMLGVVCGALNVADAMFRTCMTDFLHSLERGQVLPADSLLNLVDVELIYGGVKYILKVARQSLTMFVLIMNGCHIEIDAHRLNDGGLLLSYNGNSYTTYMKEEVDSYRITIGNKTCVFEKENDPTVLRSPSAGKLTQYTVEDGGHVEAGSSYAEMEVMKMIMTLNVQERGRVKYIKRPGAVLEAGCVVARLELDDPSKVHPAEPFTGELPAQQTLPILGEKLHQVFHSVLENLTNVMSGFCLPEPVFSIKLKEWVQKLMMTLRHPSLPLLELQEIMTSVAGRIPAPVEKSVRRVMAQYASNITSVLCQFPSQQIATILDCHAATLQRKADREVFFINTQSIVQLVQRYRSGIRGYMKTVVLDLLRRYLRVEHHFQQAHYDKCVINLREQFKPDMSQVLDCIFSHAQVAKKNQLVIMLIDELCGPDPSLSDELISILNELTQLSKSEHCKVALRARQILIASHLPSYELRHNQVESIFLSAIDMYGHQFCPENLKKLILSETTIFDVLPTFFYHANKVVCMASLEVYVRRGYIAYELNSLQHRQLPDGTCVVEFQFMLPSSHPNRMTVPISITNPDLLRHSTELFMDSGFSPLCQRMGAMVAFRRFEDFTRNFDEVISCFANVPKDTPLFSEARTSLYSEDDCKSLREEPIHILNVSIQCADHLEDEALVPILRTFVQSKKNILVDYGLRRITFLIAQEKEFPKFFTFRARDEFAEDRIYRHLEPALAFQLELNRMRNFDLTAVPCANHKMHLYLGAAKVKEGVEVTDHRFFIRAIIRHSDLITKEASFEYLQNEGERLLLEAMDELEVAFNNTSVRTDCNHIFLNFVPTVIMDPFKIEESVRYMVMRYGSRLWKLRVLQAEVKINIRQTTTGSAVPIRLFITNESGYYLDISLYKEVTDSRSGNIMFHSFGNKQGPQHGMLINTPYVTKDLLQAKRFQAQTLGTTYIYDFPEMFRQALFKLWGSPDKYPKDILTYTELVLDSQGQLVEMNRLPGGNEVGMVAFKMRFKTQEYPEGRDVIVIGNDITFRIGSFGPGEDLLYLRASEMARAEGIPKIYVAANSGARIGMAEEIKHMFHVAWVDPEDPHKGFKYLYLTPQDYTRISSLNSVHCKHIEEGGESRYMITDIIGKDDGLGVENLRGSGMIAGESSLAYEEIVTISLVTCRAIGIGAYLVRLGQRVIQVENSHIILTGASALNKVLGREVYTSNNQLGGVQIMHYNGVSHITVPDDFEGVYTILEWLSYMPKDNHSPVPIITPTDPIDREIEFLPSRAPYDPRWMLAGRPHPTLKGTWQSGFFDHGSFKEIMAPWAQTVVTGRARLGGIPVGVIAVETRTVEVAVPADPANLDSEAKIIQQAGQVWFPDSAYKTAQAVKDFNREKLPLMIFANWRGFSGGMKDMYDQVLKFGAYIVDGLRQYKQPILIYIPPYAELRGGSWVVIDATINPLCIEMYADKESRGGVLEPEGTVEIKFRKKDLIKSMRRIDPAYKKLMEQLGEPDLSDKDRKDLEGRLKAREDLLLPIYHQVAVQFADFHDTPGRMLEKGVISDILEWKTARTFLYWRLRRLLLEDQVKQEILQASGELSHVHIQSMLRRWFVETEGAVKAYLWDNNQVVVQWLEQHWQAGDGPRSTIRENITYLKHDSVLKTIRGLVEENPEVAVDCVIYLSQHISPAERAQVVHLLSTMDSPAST

With `CC(=O)N[C@@H](C)CC(=O)c1ccc(Oc2ccc(OCC3CC3)cc2Cl)cc1` [Compound I-001], the IC50 is greater than 100000 nM in assay [1] and 71 nM in assay [2] (Table 154).

Take `CC(=O)N[C@@H](C)CC(=O)c1cnc(Oc2ccc(OCC3CC3)cc2Cl)s1` [Compound I-002]: the IC50 in assay [1] is greater than 100000 nM; in assay [2] (Table 154), 770 nM.

Regarding `CCCc1ccc(Oc2ccc(OC[C@H](C)NC(=O)OC(C)(C)C)cn2)c(Cl)c1` [Compound I-003], the IC50 in assay [1] is greater than 100000 nM.

With `CC(=O)N[C@@H](C)COc1cnc(Oc2ccc3nc(C(C)C)oc3c2Cl)cn1` [Compound I-037], the IC50 in assay [1] is greater than 100000 nM; in assay [2] (Table 154), 167 nM.

As for `CCn1c(=O)sc2c(F)c(Oc3cnc(O[C@@H](C)[C@H](C)NC(C)=O)cn3)ccc21` [Compound I-058], the IC50 in assay [1] is greater than 100000 nM.

For the compound `CC(=O)N[C@@H](C)CO[C@H]1CC[C@H](Oc2ccc3nn(C(C)C)cc3c2Cl)CC1` [Compound I-067], the IC50 in assay [1] is greater than 100000 nM; in assay [2] (Table 154), 933 nM.

As to `CC(=O)N[C@@H](C)CO[C@H]1CC[C@H](Oc2ncc3cc(Br)ccc3n2)CC1` [Compound I-079], the IC50 in assay [1] is greater than 100000 nM; in assay [2] (Table 154) it was 1760 nM.

As for `CC(=O)N[C@@H](C)COc1cnc(Oc2ccc3nc(C(C)C)ncc3c2Cl)cn1` [Compound I-081], the half-maximal inhibitory concentration (IC50) in assay [1] is greater than 100000 nM; in assay [2] (Table 154) it was 344 nM.

Regarding `CC(=O)N[C@@H](C)COc1cnc(Oc2ccc(C(=O)NC3CCOCC3)c(F)c2F)cn1` [Compound I-091], the IC50 in assay [1] is greater than 100000 nM.

Turning to `CC(=O)N[C@@H](C)CO[C@H]1C[C@H](COc2ccc3nc(C(C)(F)F)sc3c2Cl)C1` [Compound I-098], the IC50 is greater than 100000 nM in assay [1] and 792 nM in assay [2] (Table 154).

As to `CCOc1nc2ccc(OC[C@H]3C[C@H](OC[C@H](C)NC(C)=O)C3)c(C#N)c2s1` [Compound I-103], the half-inhibitory concentration (IC50) in assay [1] was greater than 100000 nM; in assay [2] (Table 154) it was 4500 nM.

For `CC(=O)N[C@H]1CCC[C@@H]1Oc1ccc(Oc2ccc3nc(C(C)C)sc3c2Cl)cn1` [Compound I-106], the figures for the IC50 in assay [1] and in assay [2] (Table 154) were greater than 100000 nM and 91 nM, respectively.

On to `CC(=O)N[C@@H](C)CO[C@H]1CC[C@H](Oc2nc3c(Cl)nc(C4CC4)c(Cl)c3n2C)CC1` [Compound I-727], for which, in assay [2] (Tables 155-159), the IC50 came out at 194 nM.

As for `CC(=O)N[C@@H](CF)CO[C@H]1CC[C@H](Oc2nc3cnc(OCC(F)F)c(Cl)c3n2C)CC1` [Compound I-728], the IC50 in assay [2] (Tables 155-159) came out at 8 nM.

On to `C[C@@H](CO[C@H]1CC[C@H](Oc2nc3c(F)cc(OC4CC4)c(F)c3n2C)CC1)NC(=O)CC#N` [Compound I-729], for which, in assay [2] (Tables 155-159), the IC50 amounted to 4 nM.

Turning to `CC(=O)N[C@@H](CC#N)CO[C@H]1CC[C@H](Oc2nc3cnc(OCC(F)F)c(Cl)c3n2C)CC1` [Compound I-730], the IC50 in assay [2] (Tables 155-159) was 910 nM.

Regarding `CC(=O)N[C@@H](C)[C@@H](C)O[C@H]1CC[C@H](Oc2nc3cnc(OCC(F)F)c(Cl)c3n2C)CC1` [Compound I-732], in assay [2] (Tables 155-159), the IC50 was found to be 260 nM.

As to `CC(=O)N[C@@H](C)CO[C@H]1CC[C@H](Oc2nc3c(F)c(Cl)c(OCC(F)F)c(F)c3n2C)CC1` [Compound I-733], the IC50 in assay [2] (Tables 155-159) stood at 9 nM.

`CC(=O)N[C@@H](C)CO[C@H]1CC[C@H](Oc2nc3c(F)cc(OC4CC4)cc3n2C)CC1` [Compound I-734]: the IC50 in assay [2] (Tables 155-159) was 4 nM.

Consider `CCOc1ccc2nc(O[C@H]3CC[C@H](OC[C@H](C)NC(C)=O)CC3)n(C)c2c1C1CC1` [Compound I-735], for which the IC50 in assay [2] (Tables 155-159) was determined as 677 nM.

Consider `CC(=O)N[C@@H](C)CO[C@H]1CC[C@H](Oc2nc3cnc(OC(F)F)c(Cl)c3n2C)CC1` [Compound I-736], for which, in assay [2] (Tables 155-159), the IC50 was 87 nM.

Regarding `CC(=O)N[C@@H](C)CO[C@H]1CC[C@H](Oc2nc3c(F)cc(OCC4CC4)cc3n2C)CC1` [Compound I-737], the 50% inhibitory concentration (IC50) in assay [2] (Tables 155-159) was 33 nM.

Turning to `CC(=O)N[C@@H](C)CO[C@H]1CC[C@H](Oc2nc3c(Br)cc(OCc4ccccc4)cc3n2C)CC1` [Compound I-738], the IC50 in assay [2] (Tables 155-159) stood at 35 nM.

Take `CCOc1cc(Cl)c2nc(O[C@H]3CC[C@H](OC[C@H](C)NC(C)=O)CC3)n(C)c2c1Cl` [Compound I-739]: the concentration for half-maximal inhibition (IC50) in assay [2] (Tables 155-159) was determined as 7 nM.

Regarding `CCOc1cc(F)c2nc(O[C@H]3CC[C@H](OC[C@H](C)NC(C)=O)CC3)n(C)c2c1Cl` [Compound I-740], the IC50 in assay [2] (Tables 155-159) was determined as 3 nM.

On to `CC(=O)N[C@@H](C)CO[C@H]1CC[C@H](Oc2nc3c(F)cc(OCC(F)F)c(F)c3n2C)CC1` [Compound I-741], for which the IC50 in assay [2] (Tables 155-159) was determined as 7 nM.

For `CC(=O)N[C@@H](C)CO[C@H]1CC[C@H](Oc2nc3c(Cl)cc(OCC(F)F)c(F)c3n2C)CC1` [Compound I-742], in assay [2] (Tables 155-159), the IC50 was determined as 13 nM.

For the compound `CC(=O)N[C@@H](C)CO[C@H]1CC[C@H](Nc2nc3c(F)cc(OCC(F)F)c(F)c3n2C)CC1` [Compound I-744], the half-inhibitory concentration (IC50) in assay [2] (Tables 155-159) came out at 740 nM.

Consider `CC(=O)N[C@@H](C)CC(O)[C@@H]1CC[C@@H](Oc2nc3c(F)cc(OCC(F)F)c(F)c3n2C)CO1` (some centres unmarked) [Compound I-745], for which the IC50 in assay [2] (Tables 155-159) worked out at 490 nM.

Consider `CC(=O)N[C@@H](C)[C@@H](C)O[C@H]1CC[C@H](Oc2nc3cnc(OC4CC4)c(F)c3n2C)CC1` [Compound I-746], for which the IC50 in assay [2] (Tables 155-159) turned out to be 350 nM.

`CC(=O)N[C@@H](C)CO[C@H]1CC[C@H](Oc2nc3c(F)c(C#N)c(OCC(F)F)c(F)c3n2C)CC1` [Compound I-747]: the IC50 in assay [2] (Tables 155-159) worked out at 44 nM.

`CC(=O)N[C@@H](C)CC[C@H]1OC[C@H](Oc2nc3c(F)cc(OCC(F)F)c(Cl)c3n2C)CO1` [Compound I-748]: in assay [2] (Tables 155-159), the IC50 is 5 nM.

One may read the IC50 as the concentration that gives 50% inhibition.
